Common to all, as to format: in vivo
In assay [1] the test system is Alopecurus myosuroides. Kind of assay: Post-emergence herbicidal activity, glasshouse pot test. Details: key: 0 = no damage to plant, 5 = total damage to plant. The following applies: Application post-emergence, rate 1000 g/ha, evaluated after 13 days. The essentials: (§1)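 After 8 days of glasshouse growth at 24/16 °C day/night, potted plants receive a foliar spray of the formulated compound (0.5% Tween 20 in acetone/water). They are then watered twice daily under unchanged conditions, and phytotoxicity is scored 0–5 after 13 days.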

The test system of assay [2] is Echinochloa crus-galli. The description is as above. The arrangement: key: 0 = no damage to plant, 5 = total damage to plant. The following applies: Application post-emergence, rate 1000 g/ha, evaluated after 13 days. The essentials:
as §1

Assay [3] deals with Abutilon theophrasti. Described as above. Details: key: 0 = no damage to plant, 5 = total damage to plant. Particulars: Application post-emergence, rate 1000 g/ha, evaluated after 13 days. The essentials:
as §1

The subject of assay [4] is Setaria faberi. The description is as above. The arrangement: key: 0 = no damage to plant, 5 = total damage to plant. Particulars: Application post-emergence, rate 1000 g/ha, evaluated after 13 days. An outline of the steps:
as §1

For assay [5], the system named is zea mays. The description is as above. Details: key: 0 = no damage to plant, 5 = total damage to plant. The following applies: Application post-emergence, rate 1000 g/ha, evaluated after 13 days. An outline of the steps: as §1
Assay [6] concerns Amaranthus retroflexus. The description is as above. The following applies: Application post-emergence, rate 1000 g/ha, evaluated after 13 days. The arrangement: key: 0 = no damage to plant, 5 = total damage to plant. An outline of the steps: as §1
Assay [7] deals with Alopecurus myosuroides. In words: Pre-emergence herbicidal activity, glasshouse pot test. Particulars: pre-emergence spray, rate 1000 g/ha, evaluated after 13 days, scale 0-5. The essentials:
(§2)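 Seeds sown in standard soil were sprayed one day after sowing, before emergence, with compound formulated in acetone/water (50:50) plus 0.5% Tween 20. Plants were grown at 24/16 °C day/night, 14 h light, 65% humidity, watered twice daily, and damage was scored after 13 days (0 = none, 5 = total).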

The subject of assay [8] is Echinochloa crus-galli. The assay is described as above. Particulars: pre-emergence spray, rate 1000 g/ha, evaluated after 13 days, scale 0-5. An outline of the steps: as §2
The test system of assay [9] is Abutilon theophrasti. The assay is described as above. The following applies: pre-emergence spray, rate 1000 g/ha, evaluated after 13 days, scale 0-5. An outline of the steps: as §2
The test system of assay [10] is Setaria faberi. The assay is described as above. The following applies: pre-emergence spray, rate 1000 g/ha, evaluated after 13 days, scale 0-5. An outline of the steps: as §2
Assay [11] relates to zea mays. The assay is described as above. Particulars: pre-emergence spray, rate 1000 g/ha, evaluated after 13 days, scale 0-5. An outline of the steps: as §2
Assay [12] has as its system Amaranthus retroflexus. Described as above. Particulars: pre-emergence spray, rate 1000 g/ha, evaluated after 13 days, scale 0-5. An outline of the steps: as §2

With `CCc1cc(N2C(=O)C(OC)=C(C)C2O)ncc1Br` (stereo not drawn) [AI22], the “ALOMY herbicidal damage score” value with Alopecurus myosuroides [1] is recorded as 4. Further, the “ECHCG herbicidal damage score” value in the assay on Echinochloa crus-galli [2] is listed as 5. Also, the “ABUTH herbicidal damage score” value in the assay with Abutilon theophrasti [3] turned out to be 4. The “SETFA herbicidal damage score” value with Setaria faberi [4] is given as 5. The “ZEAMX herbicidal damage score” value in the assay on zea mays [5] stood at 1. In addition, the “AMARE herbicidal damage score” value in the assay with Amaranthus retroflexus [6] amounted to 5. Further, in the assay with Alopecurus myosuroides [7], the “ALOMY damage score, application pre-emergence” value (“ALOMY damage score” for short) was 3. In addition, in the assay on Echinochloa crus-galli [8], the “ECHCG damage score, application pre-emergence” value (“ECHCG damage score” for short) is recorded as 4. Moreover, the “ABUTH damage score, application pre-emergence” value (“ABUTH damage score” for short) with Abutilon theophrasti [9] is listed as 1. For the same molecule, the “SETFA damage score, application pre-emergence” value (“SETFA damage score” for short) in the assay on Setaria faberi [10] was determined as 2. The “ZEAMX damage score, application pre-emergence” value (“ZEAMX damage score” for short) in the assay on zea mays [11] came to 1. Besides, in the assay with Amaranthus retroflexus [12], the “AMARE damage score, application pre-emergence” value (“AMARE damage score” for short) was found to be 5.
As for `CC1=C(Cl)C(=O)N(c2cc(C(C)(C)C#N)ncn2)C1O` (stereo not drawn) [CF14], the “ALOMY herbicidal damage score” value in the assay with Alopecurus myosuroides [1] is 5. For the same molecule, the “ECHCG herbicidal damage score” value in the assay with Echinochloa crus-galli [2] turned out to be 5. In the assay on Abutilon theophrasti [3], the “ABUTH herbicidal damage score” value stood at 5. In addition, the “SETFA herbicidal damage score” value in the assay with Setaria faberi [4] is on record as 5. Besides, the “ZEAMX herbicidal damage score” value with zea mays [5] is listed as 5. In addition, in the assay with Amaranthus retroflexus [6], the “AMARE herbicidal damage score” value was 5. The “ALOMY damage score” value in the assay with Alopecurus myosuroides [7] was determined as 3. Also, in the assay with Echinochloa crus-galli [8], the “ECHCG damage score” value stood at 5. For the same molecule, the “ABUTH damage score” value in the assay on Abutilon theophrasti [9] is 5. For the same molecule, the “SETFA damage score” value with Setaria faberi [10] was determined as 5. In addition, in the assay on zea mays [11], the “ZEAMX damage score” value is 2. Also, the “AMARE damage score” value with Amaranthus retroflexus [12] was determined as 5.
Regarding `COC1=C(OC)C(O)N(c2cc(OC)ccn2)C1=O` (stereo not drawn) [AK6], in the assay with Alopecurus myosuroides [1], the “ALOMY herbicidal damage score” value is 1. Also, the “ECHCG herbicidal damage score” value in the assay on Echinochloa crus-galli [2] is given as 1. The “ABUTH herbicidal damage score” value in the assay on Abutilon theophrasti [3] is 1. In addition, the “SETFA herbicidal damage score” value with Setaria faberi [4] is listed as 0. The “ZEAMX herbicidal damage score” value in the assay on zea mays [5] amounted to 0. The “AMARE herbicidal damage score” value in the assay with Amaranthus retroflexus [6] is 0. Further, the “ALOMY damage score” value in the assay on Alopecurus myosuroides [7] is 0. Moreover, the “ECHCG damage score” value in the assay on Echinochloa crus-galli [8] is 0. Moreover, in the assay with Abutilon theophrasti [9], the “ABUTH damage score” value was found to be 0. For the same molecule, the “SETFA damage score” value in the assay with Setaria faberi [10] was 0. Moreover, the “ZEAMX damage score” value with zea mays [11] is recorded as 0. In addition, the “AMARE damage score” value with Amaranthus retroflexus [12] is on record as 0.
Take `COC1=C(C)C(O)N(c2cc(C(F)(F)F)ccn2)C1=O` (stereo not drawn) [AI1, 2-hydroxy-4-methoxy-3-methyl-1-[4-(trifluoromethyl)-2-pyridyl]-2H-pyrrol-5-one]: the “ALOMY herbicidal damage score” value with Alopecurus myosuroides [1] stood at 4. The “ECHCG herbicidal damage score” value in the assay on Echinochloa crus-galli [2] stood at 5. For the same molecule, in the assay on Abutilon theophrasti [3], the “ABUTH herbicidal damage score” value is given as 5. The “SETFA herbicidal damage score” value with Setaria faberi [4] is 5. Further, the “ZEAMX herbicidal damage score” value in the assay on zea mays [5] was found to be 4. For the same molecule, in the assay with Amaranthus retroflexus [6], the “AMARE herbicidal damage score” value came out at 5. In addition, the “ALOMY damage score” value in the assay with Alopecurus myosuroides [7] amounted to 4. For the same molecule, the “ECHCG damage score” value in the assay with Echinochloa crus-galli [8] is reported as 4. In addition, the “ABUTH damage score” value in the assay on Abutilon theophrasti [9] was determined as 5. For the same molecule, the “SETFA damage score” value with Setaria faberi [10] came out at 5. Further, the “ZEAMX damage score” value in the assay with zea mays [11] came out at 3. In the assay on Amaranthus retroflexus [12], the “AMARE damage score” value worked out at 5.
On to `CCC(C)(C)NC(=O)c1cnc(N2C(=O)C(OC)=C(C)C2O)cc1C` (stereo not drawn) [AI35], for which the “ALOMY herbicidal damage score” value in the assay with Alopecurus myosuroides [1] came to 5. Moreover, the “ECHCG herbicidal damage score” value in the assay on Echinochloa crus-galli [2] was determined as 5. Besides, the “ABUTH herbicidal damage score” value in the assay on Abutilon theophrasti [3] is recorded as 5. For the same molecule, in the assay on Setaria faberi [4], the “SETFA herbicidal damage score” value came to 5. The “ZEAMX herbicidal damage score” value with zea mays [5] is given as 3. Moreover, the “AMARE herbicidal damage score” value in the assay on Amaranthus retroflexus [6] was found to be 5. The “ALOMY damage score” value in the assay with Alopecurus myosuroides [7] turned out to be 4. Moreover, in the assay on Echinochloa crus-galli [8], the “ECHCG damage score” value is 5. Further, the “ABUTH damage score” value in the assay with Abutilon theophrasti [9] is on record as 5. In addition, the “SETFA damage score” value with Setaria faberi [10] turned out to be 5. In the assay on zea mays [11], the “ZEAMX damage score” value is given as 2. For the same molecule, the “AMARE damage score” value with Amaranthus retroflexus [12] turned out to be 5.

Source of the values: US9963445B2, “Chemical compounds” (SYNGENTA PARTICIPATIONS AG, priority 2013, dated 2018).
